How the values were obtained:
[1] = system: TNF-α; test: Cytokine assay, TNF-α release from PBMC; type: cell-based; details: Homo sapiens, PBMC, 24 h, 1 μg/mL LPS, supernatant at 24 hours
Method in brief: (§1)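 Cryopreserved human PBMC were thawed and resuspended in RPMI 1640 with 10% FBS. Test compounds, diluted from 10 mM DMSO stocks, were applied in triplicate at 10, 1, 0.1 and 0.01 μM, and cytokine release was measured.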

[2] = system: IL-2; test: Cytokine assay, IL-2 release from PBMC; type: cell-based; details: human PBMC, 20 ug/mL PHA, supernatant at 24 hours
Method in brief: as §1

[3] = system: IFN-γ; test: Cytokine assay, IFN-γ release from PBMC; type: cell-based; details: human PBMC, 20 ug/mL PHA, supernatant at 24 hours
Method in brief: as §1

[4] = system: IL-5; test: Cytokine assay, IL-5 release from PBMC; type: cell-based; details: human PBMC, 20 ug/mL PHA, supernatant at 48 hours
Method in brief: as §1

[5] = system: IL-10; test: Cytokine assay, IL-10 release from PBMC; type: cell-based; details: human PBMC, 20 ug/mL PHA, supernatant at 48 hours
Method in brief: as §1

[6] = system: T1, PDE4 partially purified from human U-937 myeloid leukemia cells; test: PDE4 Assay (enzyme from U-937 cells, [3H]cAMP); type: biochemical; details: PDE4 from U-937 cells, Tris buffer pH 7.5, 20 minutes at 25° C.
T1 construct: PDE4 partially purified from human U-937 myeloid leukemia cells was used

[7] = system: CD-1 (Crl.) derived male mice; test: Phorbol Ester Induced Mouse Ear Edema Model; type: in vivo; details: topical, 6 h; for inhibition in vivo at 0.2 mg: 0.2 mg/ear × 2 topical; for inhibition in vivo at 1 mg: 1 mg/ear × 2 topical; for inhibition in vivo at 3 mg: 3 mg/ear × 2 topical
Method in brief: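 Test compounds in acetone:ethanol 1:1 were applied topically to both ears 30 min before and 15 min after PMA challenge; dexamethasone positive control followed the same schedule. Ear thickness was measured by micrometer 6 h after PMA, and percent inhibition was calculated from ear-thickness increase versus vehicle controls.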

[8] = system: BALB/c male mice; test: Oxazolone Induced Mouse Ear Edema Model; type: in vivo; details: for inhibition in vivo at 0.2 mg: 0.2 mg/ear × 2 topical; for inhibition in vivo at 1 mg: 1 mg/ear × 2 topical
Method: 2. In Vivo Anti-Inflammation Activity in Oxazolone Induced Mouse Ear Edema Model
Groups of 5 BALB/c male mice weighing 23±2 g were used. The preshaved abdomens of test animals were sensitized by application of 100 μl, of 1.5% oxazolone solution dissolved in acetone. Seven days after the initial sensitization, test substances, as well as vehicle (acetone:ethanol/1:1, 20 μL/ear) were each administered topically to the anterior and posterior surfaces of the right ear 30 minutes before, and 15 minutes after, challenge by a second application of oxazolone (1% in acetone, […]) via topical route. As a positive control, indomethacin (0.3 mg/ear×2) was administered topically using the same treatment regime as for the test compounds. Twenty-four hours after the second application of oxazolone, the ear thickness of each mouse was measured with a Dyer model micrometer gauge. A 30 percent or more inhibition in ear swelling relative to the vehicle control was considered significant and indicated possible anti-inflammatory activity.

[9] = system: TNF-α secretion from peripheral blood mononuclear cells (PBMCs); test: TNF-α secretion from PBMCs stimulated by LPS; type: cell-based, human; details: PBMC; LPS- and PHA-induced cytokine production by human PBMCs; read-out: IC50 TNFα (pro-inflammatory cytokines)
Source text: (§2) Compounds were screened by a biochemical assay against PDE4 enzyme and cell-based cytokine release assays using PBMCs stimulated by LPS or phytohemagglutinin (PHA).

[10] = system: IL-1β production by human PBMCs; test: IL-1β production by LPS- or PHA-stimulated PBMCs; type: cell-based; details: PBMC; LPS- and PHA-induced cytokine production by human PBMCs; read-out: IC50 IL-1β (pro-inflammatory cytokines)
[11] = system: IL-2 secretion from PBMCs; test: IL-2 secretion from PBMCs stimulated with PHA; type: cell-based, human; details: PBMC; LPS- and PHA-induced cytokine production by human PBMCs; read-out: IC50 IL-2 (Th1 cytokines)
Source text: as §2

[12] = system: IFN-γ secretion from PBMCs; test: IFN-γ secretion from PBMCs stimulated with PHA; type: cell-based, human; details: PBMC; LPS- and PHA-induced cytokine production by human PBMCs; read-out: IC50 IFNg (Th1 cytokines)
Source text: as §2

[13] = system: IL-5 production by human PBMCs; test: IL-5 production by LPS- or PHA-stimulated PBMCs; type: cell-based; details: PBMC; LPS- and PHA-induced cytokine production by human PBMCs; read-out: IC50 IL-5 (Th2 cytokines)
[14] = system: IL-10 production by human PBMCs; test: IL-10 production by LPS- or PHA-stimulated PBMCs; type: cell-based; details: PBMC; LPS- and PHA-induced cytokine production by human PBMCs; read-out: IC50 IL-10 (Th2 cytokines)
[15] = target: T2, PDE1A3 (Homo sapiens, UniProt P54750); test: PDE1 inhibition; type: biochemical; details: standard: 8-methoxymethyl-IBMX
T2 construct: made in house; host or cells: baculoviral expression system
T2 sequence (P54750 whole entry): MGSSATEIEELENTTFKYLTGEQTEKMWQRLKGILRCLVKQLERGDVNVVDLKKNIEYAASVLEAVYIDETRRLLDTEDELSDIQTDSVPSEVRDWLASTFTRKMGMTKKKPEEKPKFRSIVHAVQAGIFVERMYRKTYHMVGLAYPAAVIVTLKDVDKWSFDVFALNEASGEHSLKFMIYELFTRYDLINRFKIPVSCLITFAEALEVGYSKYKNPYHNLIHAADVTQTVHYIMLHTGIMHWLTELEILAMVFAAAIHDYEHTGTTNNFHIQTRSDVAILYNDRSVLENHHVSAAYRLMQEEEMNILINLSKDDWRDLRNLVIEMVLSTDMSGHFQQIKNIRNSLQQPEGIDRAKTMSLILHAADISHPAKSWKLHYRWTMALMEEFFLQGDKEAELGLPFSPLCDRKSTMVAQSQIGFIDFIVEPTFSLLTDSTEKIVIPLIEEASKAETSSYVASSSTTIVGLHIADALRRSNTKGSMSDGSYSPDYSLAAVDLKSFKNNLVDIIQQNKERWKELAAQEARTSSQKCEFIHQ

[16] = system: T3, PDE3 Cat; test: PDE3 inhibition; type: biochemical; details: standard: Cilostazol
T3 construct: Recombinant human PDE enzymes were expressed in a baculoviral system.; PDE isoforms tested include

[17] = target: T4, PDE7A1 (Homo sapiens, UniProt Q13946); test: PDE7 inhibition; type: biochemical; details: standard: BRL-50481; read-out: IC50 PDE7A1
T4 construct: made in house; host or cells: baculoviral expression system
T4 sequence (Q13946 whole entry): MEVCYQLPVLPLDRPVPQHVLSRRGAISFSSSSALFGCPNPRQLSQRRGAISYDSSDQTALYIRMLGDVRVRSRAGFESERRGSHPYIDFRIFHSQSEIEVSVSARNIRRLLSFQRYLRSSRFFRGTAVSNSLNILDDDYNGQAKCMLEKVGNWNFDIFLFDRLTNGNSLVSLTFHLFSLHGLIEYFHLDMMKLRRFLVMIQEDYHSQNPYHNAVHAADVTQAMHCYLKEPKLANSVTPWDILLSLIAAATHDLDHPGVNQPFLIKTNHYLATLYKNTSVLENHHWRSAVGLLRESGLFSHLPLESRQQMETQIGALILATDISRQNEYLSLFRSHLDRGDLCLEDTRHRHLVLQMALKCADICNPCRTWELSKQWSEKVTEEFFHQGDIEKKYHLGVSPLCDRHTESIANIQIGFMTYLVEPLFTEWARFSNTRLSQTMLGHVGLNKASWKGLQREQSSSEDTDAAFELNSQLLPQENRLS

[18] = Acetone:Ethanol/1:1, ear swelling 6 hours after PMA
[19] = Acetone:Ethanol/1:1, ear thickness 24 hours after second oxazolone application
[20] = 95% Ethanol, ear swelling 6 hours after PMA
[21] = […] × 2 topical, 95% Ethanol, ear swelling 6 hours after PMA

SMILES | IC50 [1] | IC50 [2] | IC50 [3] | IC50 [4] | IC50 [5] | IC50 [6] | inhibition in vivo at 1 mg [7, 18] | inhibition in vivo at 1 mg [8, 19] | melting point | further results
CCOC(=O)c1ccc(Oc2ccc3c(c2)COB3O)nc1 [D60, Ethyl 6-(1-hydroxy-1,3-dihydrobenzo[c][1,2]oxaborol-5-yloxy)nicotinate] | < 1000 nM | < 1000 nM | < 1000 nM | < 1000 nM | < 1000 nM | < 1000 nM | 30 to 60% | < 20% | 110 to 113 °C | inhibition in vivo at 0.1 mg ([7]; 0.1 mg/ear × 2 topical, Acetone:Ethanol/1:1, ear swelling 6 hours after PMA): < 30%; inhibition in vivo at 0.2 mg [7, 18]: < 30%; inhibition in vivo at 0.1 mg ([8]; 0.1 mg/ear × 2 topical, Acetone:Ethanol/1:1, ear thickness 24 hours after second oxazolone application): < 20%; inhibition in vivo at 0.2 mg [8, 19]: < 20%
COC(=O)c1ccc(Oc2ccc3c(c2)COB3O)nc1C(=O)OC [D44, 6-(1-Hydroxy-1,3-dihydro-benzo[c][1,2]oxaborol-5-yloxy)-pyridine-2,3-dicarboxylic acid dimethyl ester] | < 1000 nM | < 1000 nM | < 1000 nM |  |  | < 1000 nM |  |  | 67.5 to 69.2 °C | 
COc1cc(Oc2ccc3c(c2)COB3O)ccc1C(=O)O [D36, 4-(1-Hydroxy-1,3-dihydro-benzo[c][1,2]oxaborol-5-yloxy)-2-methoxy-benzoic acid] | > 10000 nM | > 10000 nM | > 10000 nM |  |  |  |  |  | 109.6 to 110.1 °C | 
CCOC(=O)c1ccc(Oc2ccc3c(c2)COB3O)cc1OC [D35, 4-(1-Hydroxy-1,3-dihydro-benzo[c][1,2]oxaborol-5-yloxy)-2-methoxy-benzoic acid ethyl ester] | < 1000 nM | < 1000 nM | < 1000 nM |  |  | < 1000 nM |  |  | 64.9 to 65.2 °C | 
COc1ccc(C2CNC(=O)C2)cc1OC1CCCC1 (stereo not drawn) [Rolipram, rolipram, reference compound] | < 1000 nM | < 1000 nM | < 1000 nM | < 1000 nM | < 1000 nM |  |  |  |  | IC50 [9]: < 1000 nM; IC50 [10]: > 30000 nM; IC50 [11]: < 1000 nM; IC50 [12]: < 1000 nM; IC50 [13]: < 1000 nM; IC50 [14]: < 1000 nM
COCc1nc2c([nH]1)c(=O)n(C)c(=O)n2CC(C)C [8-methoxymethyl-IBMX, reference compound] |  |  |  |  |  |  |  |  |  | IC50 [15]: 1000 to 10000 nM
N#Cc1ccc(Oc2ccc3c(c2)COB3O)cc1OC1CCCC1 [D37, 2-Cyclopentyloxy-4-(1-hydroxy-1,3-dihydro-benzo[c][1,2]oxaborol-5-yloxy)-benzonitrile] | < 1000 nM | < 1000 nM | < 1000 nM | < 1000 nM | < 1000 nM | < 1000 nM | 60 to 90% | < 20% |  | inhibition in vivo at 3 mg [7, 20]: 60 to 90%
COc1cc(Oc2ccc3c(c2)COB3O)ccc1C#N [D12, 5-(4-Cyano-3-methoxyphenoxy)-1,3-dihydro-1-hydroxy-2,1-benzoxaborole] | < 1000 nM | < 1000 nM | < 1000 nM | 1000 to 4000 nM | < 1000 nM | < 1000 nM | 30 to 60% | 30 to 40% |  | inhibition in vivo at 0.2 mg [7, 18]: < 30%; inhibition in vivo at 0.2 mg [8, 19]: < 20%
O=C1CCc2cc(OCCCCc3nnnn3C3CCCCC3)ccc2N1 [Cilostazol, cilostazol, reference compound] |  |  |  |  |  |  |  |  |  | IC50 [16]: 1000 to 10000 nM
CC(C)OC(=O)c1ccc(Oc2ccc3c(c2)COB3O)nc1 [D67, Isopropyl 6-(1-hydroxy-1,3-dihydrobenzo[c][1,2]oxaborol-5-yloxy)nicotinate] | < 1000 nM | < 1000 nM | < 1000 nM | < 1000 nM | < 1000 nM | < 1000 nM | 60 to 90% | < 20% |  | 
N#Cc1ccc(Oc2ccc3c(c2)COB3O)nc1N1CCOCC1 [D102, 6-(1-Hydroxy-1,3-dihydro-benzo[c][1,2]oxaborol-5-yloxy)-2-morpholin-4-yl-nicotinonitrile] | < 1000 nM | < 1000 nM | < 1000 nM | < 1000 nM | 1000 to 4000 nM | < 1000 nM |  | < 20% |  | inhibition in vivo at 0.02 mg ([7]; 0.02 mg/ear × 2 topical, 95% Ethanol, ear swelling 6 hours after PMA): < 30%; inhibition in vivo at 0.067 mg ([7]; 0.067 mg/ear × 2 topical, 95% Ethanol, ear swelling 6 hours after PMA): < 30%; inhibition in vivo at 1 mg [7, 20]: 30 to 60%; inhibition in vivo at 3 mg [7, 20]: 30 to 60%
Cc1ccc([N+](=O)[O-])cc1S(=O)(=O)N(C)C [BRL-50481, reference compound] |  |  |  |  |  |  |  |  |  | IC50 [17]: 1000 to 10000 nM
CCOC(=O)c1nc(Oc2ccc3c(c2)COB3O)ccc1C#N [D45, 3-Cyano-6-(1-hydroxy-1,3-dihydro-benzo[c][1,2]oxaborol-5-yloxy)-pyridine-2-carboxylic acid ethyl ester] | < 1000 nM | < 1000 nM | < 1000 nM |  |  | < 1000 nM |  |  | 204 to 206 °C | 
N#Cc1ccc(Oc2ccc3c(c2)COB3O)nc1N1CCCC1 [D97, 6-(1-Hydroxy-1,3-dihydro-benzo[c][1,2]oxaborol-5-yloxy)-2-pyrrolidin-1-yl-nicotinonitrile] | < 1000 nM | < 1000 nM | < 1000 nM | < 1000 nM | < 1000 nM | < 1000 nM |  |  |  | inhibition in vivo at 0.19 mg ([7]; 0.19 mg/ear × 2 topical, 95% Ethanol, ear swelling 6 hours after PMA): < 30%; inhibition in vivo at 0.056 mg [7, 21]: < 30%; inhibition in vivo at 0.56 mg [7, 21]: 30 to 60%; inhibition in vivo at 0.56 mg ([8]; 0.56 mg/ear × 2 topical, 95% Ethanol, ear thickness 24 hours after second oxazolone application): < 20%
N#Cc1ccc(Oc2ccc3c(c2)COB3O)cc1C(F)(F)F [D5, 5-(4-Cyano-3-trifluoromethylphenoxy)-1,3-dihydro-1-hydroxy-2,1-benzoxaborole] | < 1000 nM | 1000 to 4000 nM | < 1000 nM | < 1000 nM | > 10000 nM | < 1000 nM | 30 to 60% | 30 to 40% |  | 
CCCCOC(=O)c1ccc(Oc2ccc3c(c2)COB3O)nc1 [D68, n-Butyl 6-(1-hydroxy-1,3-dihydrobenzo[c][1,2]oxaborol-5-yloxy)nicotinate] | < 1000 nM | < 1000 nM | 4000 to 10000 nM | 1000 to 4000 nM | 1000 to 4000 nM | < 1000 nM | 30 to 60% | < 20% |  | 
COc1ccc([C@]2(C#N)CC[C@@H](C(=O)O)CC2)cc1OC1CCCC1 [Cilomilast] |  |  |  |  |  |  |  |  |  | IC50 [9]: < 1000 nM; IC50 [10]: > 30000 nM; IC50 [11]: < 1000 nM; IC50 [12]: < 1000 nM; IC50 [13]: < 1000 nM; IC50 [14]: 1000 to 10000 nM
N#Cc1ccc(Oc2ccc(B(O)O)cc2)cc1 |  |  |  |  |  |  |  |  | 194 to 198 °C | 

— patent publication US9012431B2, “Boron-containing small molecules as anti-inflammatory agents” (Anacor Pharmaceuticals, Inc., priority 2008, dated 2015)
